The test system of data set [1] is L. infantum promastigotes. Nature of the data set: Antipromastigote test, L. infantum. The format is cell-based, Leishmania infantum. Conditions: Leishmania infantum; 72 h, resazurin, Mean ± SEM; read-out: L. infantum Promastigote IC50. The protocol: Leishmania infantum (MHOM/MA67ITMAP263) parasites were isolated from female BALB/c mice infected and cultured at 26 °C in Schneider’s insect medium supplemented with 20% HIFCS, streptomycin at 100 μg/ml and penicillin at 100 U/ml. New cultures of promastigotes were obtained from infected Balb/C mice.
(§1) Leishmania promastigotes of three species were incubated in 96-well plates (Nunc, Roskilde, Denmark) under the conditions described above in either the absence or presence of different concentrations of pterocarpanquinones 2a-f (0-100 μM). A stock solution of the compounds was prepared at 50 mM in dimethylsulfoxide (Sigma Aldrich). The maximum solvent concentration used in the assays was 0.4% in a final volume per well of 200 μL. The cultures were initiated with 1.0 × 10^6 cells/ml and maintained at 26 °C for 72 h. Inhibition of parasitic growth was determined by cell viability indicator, resazurin [23], with excitation λ = 560 nm and emission λ = 590 nm or the number of parasites was then counted in a Neubauer chamber (experiments with L. braziliensis). The 50% inhibitory concentration (IC50) was determined by nonlinear regression analysis in the software GraphPad Prism 5.

The subject of data set [2] is promastigotes of L. infantum. The data set is described as follows: Mitochondrial membrane potential (ΔΨm) test (rhodamine 123, flow cytometry). The class given is cell-based, Leishmania infantum. The following applies: 4 h, Rh123, IV = (MT − MC)/MC, negative = depolarization, mean ± SD. The protocol: To determine the effect of pterocarpanquinones 2a-f on the ΔΨm, promastigotes of L. infantum (5 × 10^6 cells/mL) were incubated in the presence of 0–5 μM of derivatives at 26 °C. After 4 h, the parasites were incubated for 15 min with 10 μg/mL rhodamine 123 (Rh123) (Sigma-Aldrich). Data acquisition of 10,000 events and analysis were performed using the flow cytometer FACSCalibur (Becton-Dickinson, Rutherford, NJ, USA). Alteration in ΔΨm was quantified using an index of variation (IV) obtained by the eq. IV = (MT − MC)/MC [24], where MT is the median of the fluorescence of Rh123 for treated parasites and MC is the median of the fluorescence of the control parasites. Negative IV values correspond to depolarization of the mitochondrial membrane. The FCCP (Carbonyl cyanide-p-Trifluoromethoxyphenylhydrazone) 20 μM was used as positive control.
For orientation: Flow cytometry measures light scatter and fluorescence of single cells or particles in a stream.

Data set [3] deals with intracellular amastigotes of L. amazonensis. Nature of the data set: Antiamastigote test, L. amazonensis in mouse peritoneal macrophages. The format is cell-based, Leishmania amazonensis. Conditions: for L. amazonensis SI (Selective Index): CC50 in Macrophages/IC50 in intracellular amastigotes; for IC50: Leishmania amazonensis, Peritoneal macrophage, intracellular amastigotes in mouse peritoneal macrophages, 72 h, infection index, Mean ± SEM, read-out: L. amazonensis Amastigote IC50. The protocol: (§2) For the test against intracellular amastigotes of L. amazonensis and L. infantum, resident peritoneal macrophages (swiss mouse) were plated in RPMI (Sigma-Aldrich) at 2 × 10^6/mL (0.4 mL/well) in Lab-Tek eight-chamber slides (Nunc, Roskilde, Denmark) and incubated at 37 °C in 5% CO2 for 1 h. Stationary-phase L. amazonensis and L. infantum promastigotes were added at respective parasite/macrophage ratios of 3:1 and 5:1 for 4 h. After washing three times, pterocarpanquinones 2a-f at various concentrations were added for 72 h. Next, the slides were stained using an Instant Prov hematological dye system (Newprov, Curitiba, Brazil). The number of amastigotes was determined by counting at least 100 macrophages per sample.
(§3) The results were expressed as an infection index (% infected cells×number of amastigotes/total number of macrophages). The 50% inhibitory concentration (IC50) was determined by nonlinear regression analysis in the software GraphPad Prism 5.

Data set [4] deals with L. braziliensis promastigotes. Nature of the data set: Antipromastigote test, L. braziliensis. The class given is cell-based. Conditions: Leishmania braziliensis; 72 h, parasites counted in Neubauer chamber, Mean ± SEM; read-out: L. braziliensis Promastigote IC50. The protocol:
L. braziliensis (MCAN/BR/98/R619) was routinely isolated from hamster lesions and maintained as promastigotes in Schneider’s insect medium containing 20% HIFCS and 100 μg/ml gentamicin (Schering-Plough). New cultures of promastigotes were obtained from an infected hamster.
as §1

For data set [5], the system named is intracellular amastigotes of L. braziliensis. The data set is described as follows: Antiamastigote test, L. braziliensis in golden hamster macrophages. The class given is cell-based. The following applies: for L. braziliensis SI (Selective Index): CC50 in Macrophages/IC50 in intracellular amastigotes; for IC50: Leishmania braziliensis, Peritoneal macrophage, intracellular amastigotes in golden hamster peritoneal macrophages, 72 h, infection index, Mean ± SEM, read-out: L. braziliensis Amastigote IC50. The protocol:
Macrophages of golden hamsters were used in assays against intracellular amastigotes of L. braziliensis due to the natural resistance of mice. Resident macrophages were obtained from the peritoneal cells of golden hamsters after a peritoneal injection of 10 mL of Dulbecco’s Modified Eagle’s medium (DMEM) (Sigma-Aldrich). The peritoneal macrophages were plated onto glass coverslips placed within the wells of a 24-well culture plate and incubated at 37 °C in 5% CO2 for 1 h. After removing the nonadherent cells, the monolayers were infected with stationary-phase L. braziliensis promastigotes at a 5:1 parasite/macrophage ratio for 4 h. The infected macrophages were washed and incubated with several pterocarpanquinone concentrations (0-25 μM) for 72 h. The monolayers were then stained with Giemsa, and at least 100 infected macrophages per sample were counted under optical microscopy.
as §3

Data set [6] concerns intracellular amastigotes of L. infantum. The data set is described as follows: Antiamastigote test, L. infantum in mouse peritoneal macrophages. The format is cell-based, Leishmania infantum. The following applies: for IC50: Leishmania infantum, Peritoneal macrophage, intracellular amastigotes in mouse peritoneal macrophages, infection index, Mean ± SEM, read-out: L. infantum Amastigote IC50. The protocol:
as §2, §3

The test system of data set [7] is L. amazonensis promastigotes. The data set is described as follows: Antipromastigote test, L. amazonensis. The class given is cell-based, Leishmania amazonensis. The following applies: Leishmania amazonensis; 72 h, resazurin, Mean ± SEM; read-out: L. amazonensis Promastigote IC50. The method, then: New cultures of promastigotes were obtained from infected Balb/C mice. […] A stock solution of the compounds was prepared at 50 mM in dimethylsulfoxide (Sigma Aldrich). The maximum solvent concentration used in the assays was 0.4% in a final volume per well of 200 μL. The cultures were initiated with 1.0 × 10^6 cells/ml and maintained at 26 °C for 72 h. Inhibition of parasitic growth was determined by cell viability indicator, resazurin [23], with excitation λ = 560 nm and emission λ = 590 nm or the number of parasites was then counted in a Neubauer chamber (experiments with L. braziliensis).

Data set [8] is described as follows: Macrophage toxicity test (resazurin). The format is cell-based, Swiss mice. The following applies: mouse; peritoneal macrophages of Swiss mice, 72 h, resazurin, Mean ± SEM; read-out: Murine Macrophage CC50. The method, then: (§4) To evaluate the toxicity of pterocarpanquinones 2a-f, peritoneal macrophages of Swiss mice (2 × 10^6/mL) were incubated with pterocarpanquinones (1.25–100 μM) for 72 h at 37 °C/5% CO2. Viability was evaluated with resazurin assay as described for the antipromastigote test. The 50% cytotoxicity concentration (CC50) was determined by nonlinear regression analysis in the software GraphPad Prism 5.

Data set [9] concerns peritoneal macrophages of Swiss mice. Nature of the data set: Macrophage toxicity test (resazurin). The class given is cell-based. The protocol: as §4
The test system of data set [10] is promastigotes of L. infantum. Nature of the data set: Measurement of reactive oxygen species (H2DCFDA). The class given is cell-based, Leishmania infantum. The following applies: 1.25–5.0 μM. The method, then: Intracellular ROS levels were measured in treated and untreated cells as described previously. Briefly, 1 × 10^7 promastigotes/mL of L. infantum were incubated in Schneider’s insect medium supplemented with 20% HIFCS at 26 °C with concentrations of pterocarpanquinones 2a-f ranging from 0 to 5 μM in the presence of 20 μM H2DCFDA (Molecular Probes, Eugene, OR, USA). The fluorescence was monitored at 1 h intervals for 4 h using 485 and 530 nm as excitation and emission wavelengths, respectively, using the spectrofluorometer Spectra Max Gemini XPS (Molecular Devices, Silicon Valley, CA, USA). Antimycin A 10 μM was used as positive control.

The subject of data set [11] is intracellular amastigotes of L. amazonensis. Also noted: method as in PMID 21531758. The following applies: read-out: L. amazonensis Amastigote IC50; cited from earlier work.
The test system of data set [12] is peritoneal macrophages of Swiss mice. Also noted: method as in PMID 21531758. The following applies: murine macrophage; cited from earlier work.
Data set [13] relates to intracellular amastigotes of L. braziliensis. Also noted: method as in PMID 25340550. Conditions: read-out: L. braziliensis Amastigote IC50; cited from earlier work.
Data set [14] concerns intracellular amastigotes of L. infantum. Also on record: method as in PMID 27067332. The following applies: read-out: L. infantum Amastigote IC50; cited from earlier work.
The test system of data set [15] is L. amazonensis promastigotes. Also on record: method as in PMID 21531758. The following applies: read-out: L. amazonensis Promastigote IC50; cited from earlier work.
Data set [16] concerns L. infantum promastigotes. Also noted: method as in PMID 27067332. The following applies: read-out: L. infantum Promastigote IC50; cited from earlier work.
The test system of data set [17] is L. braziliensis promastigotes. Also noted: method as in PMID 25340550. The following applies: read-out: L. braziliensis Promastigote IC50; cited from earlier work.

Structures are written as SMILES. Where two headings read alike, the source gives them in different places. Some results are limits rather than exact numbers.

As a reminder, the IC50 is the concentration needed to halve the response being measured.

`O=C1C2=C(C(=O)c3ccccc31)[C@H]1COc3cc4c(cc3[C@H]1O2)OCO4` [LQB 168 (2d)]: the IC50 in data set [1] was 2 ± 0.4 µM; in data set [3] it was 0.45 ± 0.06 µM; in data set [4], 28.2 ± 1.61 µM; in data set [5], 7.04 ± 2.29 µM; in [6] (72 h), over 50 µM; in data set [7] it was 1.37 ± 0.04 µM. Further, the “Δѱm index of variation (IV)” value in [2] (1.25 μM) was −0.369 ± 0.08; in [2] (2.5 μM), −0.194 ± 0.18. Further, the “L. amazonensis SI (Selective Index)” value in data set [3] is given as 172.6. Besides, in data set [5], the “L. braziliensis SI (Selective Index)” value was determined as 11.03. Further, the “activity against L. infantum amastigotes (in words)” value in data set [6] (intracellular amastigotes, 72 h) is recorded as “no significant activity”. Also, the CC50 at 72 h in data set [8] amounted to 77.7 ± 1.1 µM. In [9] (peritoneal macrophages, CC50 77.7 μM vs 18.46 μM), the “fold higher CC50 than LQB-118 (less cytotoxic)” value came out at 4.2 fold.

On to `O=C1C2=C(C(=O)c3ccccc31)[C@H]1COc3ccc(Cl)cc3[C@H]1O2` [LQB 236 (2c)], for which, in data set [10] (4 h), the “ROS production, dependence on concentration” value is reported as “only increased ROS production when the parasite was incubated with the highest concentration of 5 μM”. The “Early ROS production after 4 h of treatment” value in [10] (compared with control, listed as 2c) was “induction of increased ROS production”. For the same compound, the IC50 in data set [1] is 1.8 ± 0.3 µM; in [3] it was 0.6 ± 0.13 µM; in data set [4] it was 17.9 ± 1.12 µM; in [5], 8.34 ± 1.47 µM; in data set [6] (72 h) it was over 25 µM; in [7], 1.15 ± 0.18 µM. Besides, the “Δѱm index of variation (IV)” value in data set [2] (1.25 μM) was −0.360 ± 0.16; in data set [2] (2.5 μM), −0.258 ± 0.17. Also, the “L. amazonensis SI (Selective Index)” value in data set [3] turned out to be 73.16. Moreover, in data set [5], the “L. braziliensis SI (Selective Index)” value was 5.26. In addition, the CC50 at 72 h in [8] amounted to 43.9 ± 0.6 µM. In addition, the “increased cytotoxicity when compared to 2b” value in [9] (macrophages) stood at 2.6 times.

Turning to `O=C1C2=C(C(=O)c3ccccc31)[C@H]1Oc3ccccc3[C@H]1CO2` [LQB-118 (1)], the IC50 in data set [11] is 1.45 µM; in [13] it was 7.5 µM; in [14], 3.25 µM; in data set [15], 1.73 µM; in data set [16], 4.08 µM; in data set [17], 3.4 µM. The CC50 in data set [12] is 18.5 µM. For the same compound, the “L. amazonensis SI (Selective Index)” value in data set [3] came out at 12.73. Also, the “L. braziliensis SI (Selective Index)” value in data set [5] stood at 2.46. Moreover, the “L. infantum SI (Selective Index)” value in [6] (CC50 in Macrophages/IC50 in intracellular amastigotes) was 5.68.

The values above are taken from article PMC6263544, “Second-generation pterocarpanquinones: synthesis and antileishmanial activity” (The Journal of Venomous Animals and Toxins Including …, 2018).
